Test results: patent publication US20260000642A1 (Tay Therapeutics Limited, priority 2022, published 2026)
Several values for one entry are separate records, joined by “and”; a condition that tells them apart may be missing. Equal values may be shown once.

What was measured:
[1] = system: UUO renal fibrosis in rats; experiment: Unilateral Urethral Obstruction (UUO) rat renal fibrosis model: body weight, clinical observations, nephropathy scores; format: in vivo; parameters: Glomerulosclerosis clinical score / Interstitial nephritis clinical score / Collagen fiber deposition clinical score / Nephropathy clinical score: scale not given here; conditions: for Body weight: individual animals ID 1-8; for Clinical Observation: — = no finding, cells wrap: soft/stool, Anal/dirty
From the text: Unilateral Urethral Obstruction (UUO) is a complex model of renal fibrosis (RF) disease. RF is a common outcome in progressive chronic kidney diseases, characterized by excessive formation of internal scar tissue. Surgical obstruction of urine flow can be used to trigger this disease in rodents. The UUO model allows for evaluation of potential drugs as treatment for RF.
Experimental groups for the study are outlined in Table 10. […] Briefly, animals were anesthetized using a Zoletil/Xylazine mixture (20:1, v:v) for a final dose of 25 mg/kg. The operation area was disinfected with 75% alcohol before shaving. Rats in UUO group were exposed left ureter through a small incision on the left side of the abdomen and ligated with 3-0 silk at two locations about 0.5 cm below the renal hilum. The ureters of sham rats in Group 1 were manipulated but not ligated.
Starting on Day 0, animals in group 2 were administered daily doses of the vehicle for 14 days.
(§1) Clinical signs for all animals were monitored and recorded daily. Blind clinical nephropathy scores were conducted for all animals in the study. Glomerulosclerosis, interstitial nephritis, collagen fiber deposition, nephropathy were each assessed for all experimental rats, and a total clinical score was determined for each rat. The scoring system represented the degree or percentage of lesions in the whole kidney. Clinical score assessments were performed on Day 14.
Starting on Day 0, animals in group 2 were administered daily doses of the vehicle for 14 days. […] A design of the UUO study is depicted in FIG. 9B.
as §1, with “Blind” for “Clinical signs for all animals were monitored and recorded daily. Blind”, “deposition, and” for “deposition,”

UUO model: serum urea = format: in vivo, rat; conditions: UUO rats; 30 mg/kg; compared with sham and UUO + vehicle
From the text: Serum for blood biochemistry analysis was collected into centrifuge tubes without coagulant four hours after final dosing. Blood plasma samples from group 3 was collected into tubes with K2EDTA four hours after final dosing. At the conclusion of the study (end of the 14-day period), animals were euthanized. Kidney tissue was collected four hours after final dosing. Ligated side kidney was divided into three copies 1/3 fix into 10% formalin for H&E analysis, 1/3 into RNA for PCR analysis of tissue biomarkers Col1a1, TGF-b1, MCP-1, IL-1b, IL-6, IL-17, TNF-a, and Timp1, and 1/3 for hydroxyproline assay analyzed by ELISA. RNA was extracted from tissue using the RNeasy mini kit (Qiagen). RNA concentration was measured using a NanoDrop One Spectrophotometer (ThermoFisher) and converted to cDNA using a High-Capacity RNA-to-cDNA kit (Invitrogen). RT-PCR was performed to measure levels of mRNA of different targets using TaqMan® Gene Expression Master Mix and TaqMan® probe/primer sets on a QuantStudio 6 Real-Time PCR System (ThermoFisher). Fold change in target gene expression was determined using the ΔΔCt method.

IL-22 = experiment: Human PBMC assay, IL-22 by ELISA (CD2/CD3/CD28 bead stimulation); format: cell-based; conditions: 72 hours
Protocol: (§2) CD2, CD3, and CD28 antibody-coated beads from the T-cell activation/expansion kit (Miltenyi Biotec) were added to the PBMC at a bead-to-cell ratio of 1:2. The mixture of PBMCs and beads were seeded into the wells of the round-bottom 96-well plate at a concentration of 2×10^5 cells/well in a total volume of 200 μL. The cells were cultured for 72 hours at 37° C. and 5% CO2 and then supernatants were collected and IL-17A and IL-22 levels were measured by ELISA. […] The final compound concentration ranged from 30,000 nM to 0.005 nM and the final DMSO concentration per well was 0.3%. PBMCs were seeded at approximately […] in the wells of the 96-well tissue culture plate in a total volume of 190 μL. The plate was incubated for 1 hour at 37° C. and 5% CO2. […] The cells were then cultured for 24 hours at 37° C. and 5% CO2. The supernatant was collected and CXCL10 levels were measured by ELISA.

IL-17A = experiment: Human PBMC assay, IL-17A by ELISA (CD2/CD3/CD28 bead stimulation); format: cell-based; conditions: 72 hours
Protocol: as §2

BRD4 BD2 = target: T1, BRD4 BD2 (Homo sapiens, UniProt O60885); experiment: NanoBRET bromodomain assay, NanoLuc-BRD4-BD2 fusion vector in HEK293 cells; format: cell-based
T1 construct: HEK293 cells were transfected using NanoLuc-BRD4-BD1 or NanoLuc-BRD4-BD2 fusion vectors; host or cells: HEK293
From the text: Bromodomain Assay Procedure

[2] = Pharmacokinetics of Example 101 in Lewis rats (oral, CIA study); format: in vivo, Lewis rat; conditions: day 20, 10 mg/kg, individual test subjects
[3] = UUO rats, individual animals No. 1-8

CNC(=O)c1[nH]c(C(=O)NC2CCC2)cc1O[C@@H](C)c1ccccc1 [Example 101, N^5-cyclobutyl-N^2-methyl-3-(1-phenylethoxy)-1H-pyrrole-2,5-dicarboxamide]
clinical symptoms associated with UUO (overall conclusion) ([1]; 30 mg/kg): ameliorates clinical symptoms associated with UUO
Body weight ([1]; UUO rats, 30 mg/kg, Day 5, 30 mg/kg): 310 g
Body weight ([1]; UUO rats, 30 mg/kg, Day 7, 30 mg/kg): 270 g
Body weight ([1]; UUO rats, 30 mg/kg, Day 8, 30 mg/kg): 260 g and 290 g
Body weight ([1]; UUO rats, 30 mg/kg, Day 10, 30 mg/kg): 330 g (2×) and 320 g
Body weight ([1]; UUO rats, 30 mg/kg, Day 11, 30 mg/kg): 300 g and 330 g
Body weight ([1]; UUO rats, 30 mg/kg, Day 12, 30 mg/kg): 260 g and 310 g and 300 g and 340 g
Collagen fiber deposition clinical score [1, 3]: 2 (2×) and 1 (6×)
Glomerulosclerosis clinical score [1, 3]: 0
Interstitial nephritis clinical score [1, 3]: 3 (5×) and 2 (3×)
Nephropathy clinical score [1, 3]: 2 (2×) and 1 (6×)
Clinical Observation ([1]; UUO rats, individual animals No. 1-8, Day 3): diarrhea
Clinical Observation ([1]; UUO rats, individual animals No. 1-8, Day 5): Anal
Clinical Observation ([1]; UUO rats, individual animals No. 1-8, Day 6): Anal
Clinical Observation ([1]; UUO rats, individual animals No. 1-8, Day 7): Anal
Clinical Observation ([1]; UUO rats, individual animals No. 1-8, Day 8): soft
Clinical Observation ([1]; UUO rats, individual animals No. 1-8, Day 9): soft
Clinical Observation ([1]; UUO rats, individual animals No. 1-8, Day 10): soft
Clinical Observation ([1]; UUO rats, individual animals No. 1-8, Day 13): soft
Clinical Observation ([1]; UUO rats, individual animals No. 1-8, Day 14): Anal (2×) and soft
interstitial nephritis in representative pathology staining ([1]; UUO rats, 30 mg/kg (FIG. 13B)): mild interstitial nephritis
animals exhibiting diarrhea ([1]; UUO rats, 30 mg/kg, 14 days): One animal
animals exhibiting dirty anuses ([1]; UUO rats, 30 mg/kg, 14 days): Three animals
animals exhibiting soft stools ([1]; UUO rats, 30 mg/kg, 14 days): Four UUO rats
body weight over the 14-day study ([1]; UUO rats, 30 mg/kg, BID at 0 and 8 hours, 14 days (group 3)): slight weight loss over the first seven days of the study, and then gained weight over the remaining seven days
collagen fiber deposition score relative to UUO + vehicle ([1]; UUO rats, 30 mg/kg, Day 14): reduced
interstitial nephritis score relative to UUO + vehicle ([1]; UUO rats, 30 mg/kg, Day 14): reduced
nephropathy score relative to UUO + vehicle ([1]; UUO rats, 30 mg/kg, Day 14): reduced
total clinical scores relative to UUO + vehicle ([1]; UUO rats, 30 mg/kg, Day 14): reduced
serum urea levels (UUO model: serum urea): No significant differences
IC50 for IL-22 relative to GSK620 (IL-22): substantially lower 1050
IC50 for IL-17A relative to GSK620 (IL-17A): substantially lower 1050
selectivity for BDII relative to GSK620 (BRD4 BD2): greater than about two orders of magnitude
Plasma concentration at 14 h [2]: 68.5 ng/mL and 159 ng/mL and 185 ng/mL
